These results are taken from PubChem BioAssay AID1963837 (Molecular Pharmacology Branch, DTP, NCI, 2024).
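Also: spheroids exposed to drugs for seven days before readout.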

In the first assay the test system is 843126-344-R-J1-PDC complex spheroid viability. Briefly: Anticancer human tumor 843126-344-R-J1-PDC patient-derived melanoma cell line growth inhibition [POLQ]. The note with it: second compound 0.1 µM; first compound 1 µM; stronger effect = lower value. In outline:
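Three-cell-type spheroids modelling solid tumor plus stroma served as the readout system; POL inhibitors were tested individually and in combination, concentration ranges set by clinical Cmax where known.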
In general, viability, T/C refers to the result in the treated group divided by that in the control group, in per cent. As to `COc1cc2cc(C(=O)CCC(=O)O)sc2cc1OC` + Nc1ccc(C#CCN(C(=O)Cc2ncc(C(F)(F)F)cc2C(F)(F)F)c2ccc(F)cc2)nn1, the viability, T/C was 102%.

`O=C(Nc1ccc(O)c(NS(=O)(=O)c2ccc(F)cc2)c1)c1ccc(-c2ccccc2)cc1` + Nc1ccc(C#CCN(C(=O)Cc2ncc(C(F)(F)F)cc2C(F)(F)F)c2ccc(F)cc2)nn1: the viability, T/C was 85.4%.

The same assay, now with this note: second compound 0.1 µM; first compound 3.16 µM; stronger effect = lower value.
`C#Cc1c(F)ccc2cc(O)cc(-c3ncc4c(N5CC6CCC(C5)N6)nc(OCC56CCCN5CC(F)C6)nc4c3F)c12` (configuration not stated) + Nc1ccc(C#CCN(C(=O)Cc2ncc(C(F)(F)F)cc2C(F)(F)F)c2ccc(F)cc2)nn1: the viability, T/C is 103%.

As for `CC1COCCN1c1cc(C2(O)CC3CCC(C2)O3)c2cnn(-c3ccn[nH]3)c2n1` (configuration not stated) + Nc1ccc(C#CCN(C(=O)Cc2ncc(C(F)(F)F)cc2C(F)(F)F)c2ccc(F)cc2)nn1, the viability, T/C is 31.9%.

As for `CCc1cc2c(N3CCc4c(cc(Cn5ccnc5)cc4-c4cn(C)nc4C(F)(F)F)C3=O)cc(C)nc2c(OC)n1` + Nc1ccc(C#CCN(C(=O)Cc2ncc(C(F)(F)F)cc2C(F)(F)F)c2ccc(F)cc2)nn1, the viability, T/C is 79.7%.

Regarding `COc1cc2cc(C(=O)CCC(=O)O)sc2cc1OC` + Nc1ccc(C#CCN(C(=O)Cc2ncc(C(F)(F)F)cc2C(F)(F)F)c2ccc(F)cc2)nn1, the viability, T/C is 89.9%.

`O=C(Nc1ccc(O)c(NS(=O)(=O)c2ccc(F)cc2)c1)c1ccc(-c2ccccc2)cc1` + Nc1ccc(C#CCN(C(=O)Cc2ncc(C(F)(F)F)cc2C(F)(F)F)c2ccc(F)cc2)nn1: the viability, T/C is 89.1%.

Staying with this assay, now noted: second compound 0.1 µM; first compound 10 µM; stronger effect = lower value.
In the case of `C#Cc1c(F)ccc2cc(O)cc(-c3ncc4c(N5CC6CCC(C5)N6)nc(OCC56CCCN5CC(F)C6)nc4c3F)c12` (configuration not stated) + Nc1ccc(C#CCN(C(=O)Cc2ncc(C(F)(F)F)cc2C(F)(F)F)c2ccc(F)cc2)nn1, the viability, T/C was 84.5%.

For the compound `CC1COCCN1c1cc(C2(O)CC3CCC(C2)O3)c2cnn(-c3ccn[nH]3)c2n1` (configuration not stated) + Nc1ccc(C#CCN(C(=O)Cc2ncc(C(F)(F)F)cc2C(F)(F)F)c2ccc(F)cc2)nn1, the viability, T/C was 22%.

Turning to `CCc1cc2c(N3CCc4c(cc(Cn5ccnc5)cc4-c4cn(C)nc4C(F)(F)F)C3=O)cc(C)nc2c(OC)n1` + Nc1ccc(C#CCN(C(=O)Cc2ncc(C(F)(F)F)cc2C(F)(F)F)c2ccc(F)cc2)nn1, the viability, T/C was 58.2%.

On to `COc1cc2cc(C(=O)CCC(=O)O)sc2cc1OC` + Nc1ccc(C#CCN(C(=O)Cc2ncc(C(F)(F)F)cc2C(F)(F)F)c2ccc(F)cc2)nn1, for which the viability, T/C was 107%.

With `O=C(Nc1ccc(O)c(NS(=O)(=O)c2ccc(F)cc2)c1)c1ccc(-c2ccccc2)cc1` + Nc1ccc(C#CCN(C(=O)Cc2ncc(C(F)(F)F)cc2C(F)(F)F)c2ccc(F)cc2)nn1, the viability, T/C is 64.8%.

The same assay, now with this note: second compound 0.316 µM; first compound 0.0316 µM; stronger effect = lower value.
With `C#Cc1c(F)ccc2cc(O)cc(-c3ncc4c(N5CC6CCC(C5)N6)nc(OCC56CCCN5CC(F)C6)nc4c3F)c12` (configuration not stated) + Nc1ccc(C#CCN(C(=O)Cc2ncc(C(F)(F)F)cc2C(F)(F)F)c2ccc(F)cc2)nn1, the viability, T/C is 100%.

As to `CC1COCCN1c1cc(C2(O)CC3CCC(C2)O3)c2cnn(-c3ccn[nH]3)c2n1` (configuration not stated) + Nc1ccc(C#CCN(C(=O)Cc2ncc(C(F)(F)F)cc2C(F)(F)F)c2ccc(F)cc2)nn1, the viability, T/C is 73.2%.

On to `CCc1cc2c(N3CCc4c(cc(Cn5ccnc5)cc4-c4cn(C)nc4C(F)(F)F)C3=O)cc(C)nc2c(OC)n1` + Nc1ccc(C#CCN(C(=O)Cc2ncc(C(F)(F)F)cc2C(F)(F)F)c2ccc(F)cc2)nn1, for which the viability, T/C was 87.5%.

On to `COc1cc2cc(C(=O)CCC(=O)O)sc2cc1OC` + Nc1ccc(C#CCN(C(=O)Cc2ncc(C(F)(F)F)cc2C(F)(F)F)c2ccc(F)cc2)nn1, for which the viability, T/C is 96.1%.

Turning to `O=C(Nc1ccc(O)c(NS(=O)(=O)c2ccc(F)cc2)c1)c1ccc(-c2ccccc2)cc1` + Nc1ccc(C#CCN(C(=O)Cc2ncc(C(F)(F)F)cc2C(F)(F)F)c2ccc(F)cc2)nn1, the viability, T/C is 100%.

Staying with this assay, now noted: second compound 0.316 µM; first compound 0.1 µM; stronger effect = lower value.
Regarding `C#Cc1c(F)ccc2cc(O)cc(-c3ncc4c(N5CC6CCC(C5)N6)nc(OCC56CCCN5CC(F)C6)nc4c3F)c12` (configuration not stated) + Nc1ccc(C#CCN(C(=O)Cc2ncc(C(F)(F)F)cc2C(F)(F)F)c2ccc(F)cc2)nn1, the viability, T/C was 91.4%.

For `CC1COCCN1c1cc(C2(O)CC3CCC(C2)O3)c2cnn(-c3ccn[nH]3)c2n1` (configuration not stated) + Nc1ccc(C#CCN(C(=O)Cc2ncc(C(F)(F)F)cc2C(F)(F)F)c2ccc(F)cc2)nn1, the viability, T/C was 69.9%.

Turning to `CCc1cc2c(N3CCc4c(cc(Cn5ccnc5)cc4-c4cn(C)nc4C(F)(F)F)C3=O)cc(C)nc2c(OC)n1` + Nc1ccc(C#CCN(C(=O)Cc2ncc(C(F)(F)F)cc2C(F)(F)F)c2ccc(F)cc2)nn1, the viability, T/C is 97.4%.

As for `COc1cc2cc(C(=O)CCC(=O)O)sc2cc1OC` + Nc1ccc(C#CCN(C(=O)Cc2ncc(C(F)(F)F)cc2C(F)(F)F)c2ccc(F)cc2)nn1, the viability, T/C was 94.2%.

As to `O=C(Nc1ccc(O)c(NS(=O)(=O)c2ccc(F)cc2)c1)c1ccc(-c2ccccc2)cc1` + Nc1ccc(C#CCN(C(=O)Cc2ncc(C(F)(F)F)cc2C(F)(F)F)c2ccc(F)cc2)nn1, the viability, T/C was 92.5%.

The same assay, now with this note: second compound 0.316 µM; first compound 0.316 µM; stronger effect = lower value.
Consider `C#Cc1c(F)ccc2cc(O)cc(-c3ncc4c(N5CC6CCC(C5)N6)nc(OCC56CCCN5CC(F)C6)nc4c3F)c12` (configuration not stated) + Nc1ccc(C#CCN(C(=O)Cc2ncc(C(F)(F)F)cc2C(F)(F)F)c2ccc(F)cc2)nn1, for which the viability, T/C is 84.5%.

With `CC1COCCN1c1cc(C2(O)CC3CCC(C2)O3)c2cnn(-c3ccn[nH]3)c2n1` (configuration not stated) + Nc1ccc(C#CCN(C(=O)Cc2ncc(C(F)(F)F)cc2C(F)(F)F)c2ccc(F)cc2)nn1, the viability, T/C was 49.1%.

Take `CCc1cc2c(N3CCc4c(cc(Cn5ccnc5)cc4-c4cn(C)nc4C(F)(F)F)C3=O)cc(C)nc2c(OC)n1` + Nc1ccc(C#CCN(C(=O)Cc2ncc(C(F)(F)F)cc2C(F)(F)F)c2ccc(F)cc2)nn1: the viability, T/C is 77.6%.

As for `COc1cc2cc(C(=O)CCC(=O)O)sc2cc1OC` + Nc1ccc(C#CCN(C(=O)Cc2ncc(C(F)(F)F)cc2C(F)(F)F)c2ccc(F)cc2)nn1, the viability, T/C is 104%.

With `O=C(Nc1ccc(O)c(NS(=O)(=O)c2ccc(F)cc2)c1)c1ccc(-c2ccccc2)cc1` + Nc1ccc(C#CCN(C(=O)Cc2ncc(C(F)(F)F)cc2C(F)(F)F)c2ccc(F)cc2)nn1, the viability, T/C is 98.8%.
